Test results as given in the NIST ThermoML archive (doi:10.1016/j.jct.2016.09.007).
± gives the expanded uncertainty stated by the source.

Assay: xn = mol fraction of the nth substance listed
Conditions: 93.2 kPa, Liquid; for speed of sound: Frequency=3 MHz, Sing-around technique in a fixed-path interferometer; for mass density: Vibrating tube method

CCCC(=O)[O-].CCCC[NH3+] [n-butylammonium butanoate] + CCCCCO
Conditions | mass density, 293.15 K [kg/m3] | mass density, 298.15 K [kg/m3] | mass density, 303.15 K [kg/m3] | mass density, 308.15 K [kg/m3] | mass density, 313.15 K [kg/m3] | speed of sound, 293.15 K [m/s] | speed of sound, 298.15 K [m/s] | speed of sound, 303.15 K [m/s] | speed of sound, 308.15 K [m/s] | speed of sound, 313.15 K [m/s]
x1 = 0.0504 | 824.946 ± 4 | 821.27 ± 4 | 817.568 ± 4 | 813.834 ± 4 | 810.063 ± 4 | 1301.5 ± 5.3 | 1284.3 ± 5.3 | 1267.3 ± 5.3 | 1250.4 ± 5.3 | 1233.7 ± 5.3
x1 = 0.1004 | 834.049 ± 4 | 830.391 ± 4 | 826.701 ± 4 | 822.985 ± 4 | 819.232 ± 4 | 1308.8 ± 5.3 | 1291.6 ± 5.3 | 1274.6 ± 5.3 | 1257.6 ± 5.3 | 1240.9 ± 5.3
x1 = 0.1491 | 842.19 ± 4 | 838.55 ± 4 | 834.886 ± 4 | 831.191 ± 4 | 827.462 ± 4 | 1315.5 ± 5.3 | 1298.2 ± 5.3 | 1281.2 ± 5.3 | 1264.2 ± 5.3 | 1247.4 ± 5.3
x1 = 0.2025 | 850.502 ± 4 | 846.885 ± 4 | 843.247 ± 4 | 839.579 ± 4 | 835.881 ± 4 | 1322.6 ± 5.3 | 1305.3 ± 5.3 | 1288.2 ± 5.3 | 1271.2 ± 5.3 | 1254.4 ± 5.3
x1 = 0.2513 | 857.492 ± 4 | 853.902 ± 4 | 850.29 ± 4 | 846.65 ± 4 | 842.977 ± 4 | 1328.8 ± 5.3 | 1311.6 ± 5.3 | 1294.5 ± 5.3 | 1277.5 ± 5.3 | 1260.7 ± 5.3
x1 = 0.3007 | 864.133 ± 4 | 860.568 ± 4 | 856.983 ± 4 | 853.372 ± 4 | 849.736 ± 4 | 1335 ± 5.3 | 1317.8 ± 5.3 | 1300.7 ± 5.3 | 1283.7 ± 5.3 | 1267 ± 5.3
x1 = 0.3506 | 870.527 ± 4 | 866.989 ± 4 | 863.432 ± 4 | 859.854 ± 4 | 856.248 ± 4 | 1341.3 ± 5.3 | 1324.1 ± 5.3 | 1307.1 ± 5.3 | 1290.2 ± 5.3 | 1273.4 ± 5.3
x1 = 0.4003 | 876.48 ± 4 | 872.967 ± 4 | 869.437 ± 4 | 865.888 ± 4 | 862.315 ± 4 | 1347.5 ± 5.3 | 1330.3 ± 5.3 | 1313.3 ± 5.3 | 1296.4 ± 5.3 | 1279.8 ± 5.3
x1 = 0.4485 | 881.984 ± 4 | 878.492 ± 4 | 874.989 ± 4 | 871.466 ± 4 | 867.921 ± 4 | 1353.3 ± 5.3 | 1336.2 ± 5.3 | 1319.2 ± 5.3 | 1302.4 ± 5.3 | 1285.7 ± 5.3
x1 = 0.4981 | 887.228 ± 4 | 883.761 ± 4 | 880.283 ± 4 | 876.786 ± 4 | 873.27 ± 4 | 1359.2 ± 5.3 | 1342.1 ± 5.3 | 1325.1 ± 5.3 | 1308.3 ± 5.3 | 1291.8 ± 5.3
x1 = 0.549 | 892.419 ± 4 | 888.971 ± 4 | 885.516 ± 4 | 882.044 ± 4 | 878.557 ± 4 | 1365.4 ± 5.3 | 1348.2 ± 5.3 | 1331.3 ± 5.3 | 1314.5 ± 5.3 | 1298 ± 5.3
x1 = 0.5979 | 897.108 ± 4 | 893.686 ± 4 | 890.251 ± 4 | 886.802 ± 4 | 883.336 ± 4 | 1371.3 ± 5.3 | 1354.1 ± 5.3 | 1337.1 ± 5.3 | 1320.3 ± 5.3 | 1303.8 ± 5.3
x1 = 0.6483 | 901.8 ± 4 | 898.401 ± 4 | 894.993 ± 4 | 891.566 ± 4 | 888.123 ± 4 | 1377.6 ± 5.3 | 1360.3 ± 5.3 | 1343.3 ± 5.3 | 1326.5 ± 5.3 | 1310 ± 5.3
x1 = 0.6971 | 906.089 ± 4 | 902.72 ± 4 | 899.338 ± 4 | 895.935 ± 4 | 892.514 ± 4 | 1383.8 ± 5.3 | 1366.4 ± 5.3 | 1349.3 ± 5.3 | 1332.5 ± 5.3 | 1315.9 ± 5.3
x1 = 0.7444 | 910.065 ± 4 | 906.721 ± 4 | 903.359 ± 4 | 899.982 ± 4 | 896.583 ± 4 | 1389.8 ± 5.3 | 1372.2 ± 5.3 | 1355 ± 5.3 | 1338.1 ± 5.3 | 1321.6 ± 5.3
x1 = 0.7997 | 914.585 ± 4 | 911.263 ± 4 | 907.929 ± 4 | 904.583 ± 4 | 901.213 ± 4 | 1397.4 ± 5.3 | 1379.5 ± 5.3 | 1362 ± 5.3 | 1345 ± 5.3 | 1328.3 ± 5.3
x1 = 0.8466 | 918.226 ± 4 | 914.903 ± 4 | 911.586 ± 4 | 908.265 ± 4 | 904.921 ± 4 | 1404.4 ± 5.3 | 1386 ± 5.3 | 1368.2 ± 5.3 | 1350.9 ± 5.3 | 1334.1 ± 5.3
x1 = 0.901 | 922.256 ± 4 | 918.92 ± 4 | 915.606 ± 4 | 912.298 ± 4 | 908.979 ± 4 | 1413 ± 5.3 | 1394 ± 5.3 | 1375.7 ± 5.3 | 1358 ± 5.3 | 1341 ± 5.3
x1 = 0.9495 | 925.7 ± 4 | 922.407 ± 4 | 919.075 ± 4 | 915.767 ± 4 | 912.465 ± 4 | 1421.1 ± 5.3 | 1401.3 ± 5.3 | 1382.5 ± 5.3 | 1364.4 ± 5.3 | 1347 ± 5.3
x1 = 1 | 928.794 ± 4 | 925.509 ± 4 | 922.217 ± 4 | 918.88 ± 4 | 915.567 ± 4 | 1431.5 ± 5.3 | 1410.3 ± 5.3 | 1390.4 ± 5.3 | 1371.5 ± 5.3 | 1353.6 ± 5.3
